The record followed here is ChEMBL document CHEMBL5226323, “Targeting Nuclear Receptors in Neurodegeneration and Neuroinflammation” (J Med Chem, 2021).

Data set [1] has as its target T1, Nuclear receptor subfamily 2 group E member 1 (Homo sapiens, UniProt Q9Y466). Briefly: Inverse agonist activity at TLX (unknown origin).
The target of data set [2] is T2, Nuclear receptor subfamily 4 group A member 2/Retinoic acid receptor RXR-alpha (Homo sapiens, UniProt P19793+P43354). Briefly: Inhibition of Nurr1-RXRalpha (unknown origin) by BRET assay. Format: protein-complex assay. For orientation: Bioluminescence resonance energy transfer reports proximity on the nanometre scale.
T2 sequence (P43354 whole entry, one chain of several): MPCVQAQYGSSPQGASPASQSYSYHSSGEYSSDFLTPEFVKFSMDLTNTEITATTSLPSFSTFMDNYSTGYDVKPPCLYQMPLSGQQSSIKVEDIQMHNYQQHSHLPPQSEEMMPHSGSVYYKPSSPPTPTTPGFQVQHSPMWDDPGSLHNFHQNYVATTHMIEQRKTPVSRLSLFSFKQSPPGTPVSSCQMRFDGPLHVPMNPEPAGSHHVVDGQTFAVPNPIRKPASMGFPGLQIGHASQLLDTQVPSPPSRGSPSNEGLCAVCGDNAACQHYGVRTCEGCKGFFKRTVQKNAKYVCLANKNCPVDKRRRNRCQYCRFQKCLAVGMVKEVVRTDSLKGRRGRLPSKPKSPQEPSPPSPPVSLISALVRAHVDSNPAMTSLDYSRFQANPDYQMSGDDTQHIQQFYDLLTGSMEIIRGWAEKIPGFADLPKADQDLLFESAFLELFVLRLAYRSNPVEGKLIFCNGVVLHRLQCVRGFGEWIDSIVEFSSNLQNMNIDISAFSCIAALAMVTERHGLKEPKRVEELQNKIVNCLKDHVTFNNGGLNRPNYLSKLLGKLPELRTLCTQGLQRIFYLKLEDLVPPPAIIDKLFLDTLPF
Data set [3] has as its target T3, Retinoic acid receptor RXR-alpha (Homo sapiens, UniProt P19793).
T3 sequence (P19793 whole entry): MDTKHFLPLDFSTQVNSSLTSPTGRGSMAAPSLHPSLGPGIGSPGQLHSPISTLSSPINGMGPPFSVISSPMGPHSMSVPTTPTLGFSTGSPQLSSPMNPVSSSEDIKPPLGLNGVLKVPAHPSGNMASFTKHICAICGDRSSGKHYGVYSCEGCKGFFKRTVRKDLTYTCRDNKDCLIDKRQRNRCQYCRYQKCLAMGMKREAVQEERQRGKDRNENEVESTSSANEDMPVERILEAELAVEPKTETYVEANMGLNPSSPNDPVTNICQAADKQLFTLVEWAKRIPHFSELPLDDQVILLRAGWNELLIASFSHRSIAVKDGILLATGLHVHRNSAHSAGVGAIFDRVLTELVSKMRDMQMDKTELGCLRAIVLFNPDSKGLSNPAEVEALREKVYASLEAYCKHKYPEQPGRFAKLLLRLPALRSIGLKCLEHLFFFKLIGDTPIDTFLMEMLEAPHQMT
Briefly: Inhibition of RXRalpha (unknown origin) by BRET assay.

The species entered for data set [4] is Homo sapiens. The experiment in a line: Selectivity ratio of IC50 for Nurr1-RXRalpha (unknown origin) to IC50 for RXRalpha (unknown origin) by BRET assay.
In data set [5] the target is T3, Retinoic acid receptor RXR-alpha. The experiment in a line: Antagonist activity at RXRalpha (unknown origin).
Data set [6] has the same target. Briefly: Inhibition of RXRalpha (unknown origin).
Data set [7] concerns the target T4, Retinoic acid receptor RXR-beta (Homo sapiens, UniProt P28702).
T4 sequence (P28702 whole entry): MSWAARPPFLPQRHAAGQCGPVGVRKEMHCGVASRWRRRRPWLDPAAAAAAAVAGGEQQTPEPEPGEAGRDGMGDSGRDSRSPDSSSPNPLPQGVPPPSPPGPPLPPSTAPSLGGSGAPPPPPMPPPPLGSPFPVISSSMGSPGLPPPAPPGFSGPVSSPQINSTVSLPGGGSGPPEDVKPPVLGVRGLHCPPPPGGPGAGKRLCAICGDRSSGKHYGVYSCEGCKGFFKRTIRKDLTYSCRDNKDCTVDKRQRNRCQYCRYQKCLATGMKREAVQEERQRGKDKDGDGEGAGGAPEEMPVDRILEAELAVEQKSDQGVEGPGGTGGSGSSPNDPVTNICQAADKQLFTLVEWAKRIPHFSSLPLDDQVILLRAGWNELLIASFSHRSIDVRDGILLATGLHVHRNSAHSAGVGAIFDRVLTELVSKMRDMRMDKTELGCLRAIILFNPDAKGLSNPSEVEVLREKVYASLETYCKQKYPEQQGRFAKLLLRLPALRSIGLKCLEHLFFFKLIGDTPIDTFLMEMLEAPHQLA
The experiment in a line: Inhibition of RXRbeta (unknown origin).

Data set [8] has as its target T5, Retinoic acid receptor RXR-gamma (Homo sapiens, UniProt P48443).
T5 sequence (P48443 whole entry): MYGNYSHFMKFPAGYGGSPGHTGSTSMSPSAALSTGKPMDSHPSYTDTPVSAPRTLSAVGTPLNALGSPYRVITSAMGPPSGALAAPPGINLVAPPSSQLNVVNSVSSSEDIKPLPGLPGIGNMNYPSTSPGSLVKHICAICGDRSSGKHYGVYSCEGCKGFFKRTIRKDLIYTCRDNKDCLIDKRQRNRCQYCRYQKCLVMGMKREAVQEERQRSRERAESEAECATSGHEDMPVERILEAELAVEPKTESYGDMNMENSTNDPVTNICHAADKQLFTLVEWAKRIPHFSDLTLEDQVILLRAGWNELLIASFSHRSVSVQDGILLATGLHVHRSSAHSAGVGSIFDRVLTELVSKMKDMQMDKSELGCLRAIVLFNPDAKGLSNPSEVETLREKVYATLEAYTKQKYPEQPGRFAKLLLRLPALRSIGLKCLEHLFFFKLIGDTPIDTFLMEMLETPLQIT
The experiment in a line: Inhibition of RXRgamma (unknown origin).

For data set [9], the target named is T1, Nuclear receptor subfamily 2 group E member 1. The experiment in a line: Inverse agonist activity at TLX (unknown origin) assessed as fold activation. The note with it: filed as inverse agonist.
Data set [10] concerns the target T6, Nuclear receptor subfamily 4immunitygroup A member 1 (Homo sapiens, UniProt P22736). Briefly: Inhibition of Gal4-fused Nur77 in HEK293T cells. The class given is cell-based.
In data set [11] the target is T2, Nuclear receptor subfamily 4 group A member 2/Retinoic acid receptor RXR-alpha. Briefly: Inhibition of full-length Nurr1-RXRalpha in human SH-SY5Y cells. The class given is cell-based.
Data set [12] is described as follows: Half life in ip dosed mouse. The class given is ADME, organism-based. The note with it: in vivo.
The nature of data set [13]: Half life in ip dosed mouse brain. The class given is ADME, organism-based.
In data set [14] the test system is Mus musculus. Briefly: Anti-alzheimer activity against APP/PS1 mouse assessed as decrease in A-beta levels in hippocampus at 100 mg/kg, po measured after 14 days by ELISA analysis relative to control. Format: functional. More on the design: scale not given: the % may be the effect or the level left. The note with it: time 14 day. In general terms: ELISA stands for enzyme-linked immunosorbent assay.

Data set [15] in a line: Inhibition of RXR (unknown origin).
The target of data set [16] is T7, Retinoic acid receptor RXR-alpha (Homo sapiens) (UniProt P19793).
T7 sequence (whole entry): T3 sequence (P19793 whole entry)
Briefly: Agonist activity at RXRalpha (unknown origin) assessed as fold activation. The note with it: filed as agonist.

Data set [17] addresses T8, Retinoic acid receptor RXR-beta (Homo sapiens) (UniProt P28702).
T8 sequence (whole entry): T4 sequence (P28702 whole entry)
Briefly: Agonist activity at RXRbeta (unknown origin) assessed as fold activation. The note with it: filed as agonist.

The target in data set [18] is T9, Retinoic acid receptor RXR-gamma (Homo sapiens) (UniProt P48443).
T9 sequence (whole entry): T5 sequence (P48443 whole entry)
The experiment in a line: Agonist activity at RXRgamma (unknown origin) assessed as fold activation. The note with it: filed as agonist.

Data set [19] has as its target T6, Nuclear receptor subfamily 4immunitygroup A member 1. The experiment in a line: Binding affinity to Nur77 (unknown origin) by SPR assay. On the technique in general: Surface plasmon resonance follows binding to a sensor surface in real time, without labels.
Data set [20] shares this target. Briefly: Agonist activity at full length Nur77 in Normal human bronchial epithelial cell assessed as fold increase of receptor transactivation at 10 uM. The class given is cell-based. The note with it: filed as agonist.
Data set [21] has the same target. Briefly: Inhibition of full length Nur77 in HEK293T cells at 50 uM relative to control. Format: cell-based.
Data set [22] deals with Nuclear receptor subfamily 4 group A member 1 (Mus musculus) (UniProt P12813). Briefly: Inhibition of full length Nur77 in mouse MN9D cells at 50 uM relative to control. Format: cell-based.
Nuclear receptor subfamily 4 group A member 1 (Mus musculus), sequence (P12813 whole entry): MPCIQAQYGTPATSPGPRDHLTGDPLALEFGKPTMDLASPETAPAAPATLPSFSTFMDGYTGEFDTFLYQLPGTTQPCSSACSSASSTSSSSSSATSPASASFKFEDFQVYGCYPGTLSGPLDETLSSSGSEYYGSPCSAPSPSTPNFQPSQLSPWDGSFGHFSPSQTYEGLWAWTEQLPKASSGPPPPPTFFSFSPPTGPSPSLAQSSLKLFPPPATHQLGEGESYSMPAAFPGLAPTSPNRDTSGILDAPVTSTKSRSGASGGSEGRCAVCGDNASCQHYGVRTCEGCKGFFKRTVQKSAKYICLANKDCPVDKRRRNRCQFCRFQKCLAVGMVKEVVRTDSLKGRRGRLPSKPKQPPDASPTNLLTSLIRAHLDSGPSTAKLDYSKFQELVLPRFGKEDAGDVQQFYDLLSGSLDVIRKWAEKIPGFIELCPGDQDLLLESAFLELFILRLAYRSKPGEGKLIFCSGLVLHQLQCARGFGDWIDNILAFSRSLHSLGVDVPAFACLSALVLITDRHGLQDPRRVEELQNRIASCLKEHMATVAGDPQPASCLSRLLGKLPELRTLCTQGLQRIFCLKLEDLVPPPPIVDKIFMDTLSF
Data set [23] can be described thus: Antagonist activity at NFkappaB in rat RAW264.7 cells.

T6 sequence (P22736 whole entry, the tested form may be a part): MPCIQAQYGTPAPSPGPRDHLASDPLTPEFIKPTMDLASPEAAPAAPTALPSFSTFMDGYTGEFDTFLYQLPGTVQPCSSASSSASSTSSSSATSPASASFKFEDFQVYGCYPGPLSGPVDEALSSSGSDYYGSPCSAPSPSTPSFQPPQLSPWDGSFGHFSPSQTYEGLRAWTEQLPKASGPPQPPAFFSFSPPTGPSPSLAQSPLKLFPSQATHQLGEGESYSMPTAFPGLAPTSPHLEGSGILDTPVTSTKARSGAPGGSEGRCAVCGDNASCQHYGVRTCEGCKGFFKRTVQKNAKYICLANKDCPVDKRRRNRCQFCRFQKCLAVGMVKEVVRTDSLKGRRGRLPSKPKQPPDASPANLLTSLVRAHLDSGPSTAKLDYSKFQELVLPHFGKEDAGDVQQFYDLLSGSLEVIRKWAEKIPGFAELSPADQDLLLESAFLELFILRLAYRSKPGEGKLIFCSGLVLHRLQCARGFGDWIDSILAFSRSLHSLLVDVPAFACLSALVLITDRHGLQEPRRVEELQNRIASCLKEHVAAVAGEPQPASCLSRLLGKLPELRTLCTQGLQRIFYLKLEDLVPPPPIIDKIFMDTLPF
T1 sequence (Q9Y466 whole entry): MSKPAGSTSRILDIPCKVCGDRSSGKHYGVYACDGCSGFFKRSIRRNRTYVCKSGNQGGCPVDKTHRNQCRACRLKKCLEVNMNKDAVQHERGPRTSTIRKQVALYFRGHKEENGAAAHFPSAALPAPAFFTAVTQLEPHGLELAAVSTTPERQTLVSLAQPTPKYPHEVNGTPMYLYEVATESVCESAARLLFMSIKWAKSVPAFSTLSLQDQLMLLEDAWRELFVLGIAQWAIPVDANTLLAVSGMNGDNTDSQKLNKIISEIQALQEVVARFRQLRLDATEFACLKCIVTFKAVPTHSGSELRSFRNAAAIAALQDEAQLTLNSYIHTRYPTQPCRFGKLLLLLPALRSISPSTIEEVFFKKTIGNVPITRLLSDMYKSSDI

As for `O=C(O)c1ccc(-c2ccc3cc(O)c(C45CC6CC(CC(C6)C4)C5)cc3c2)cc1`, the EC50 (in general, the concentration that produces a half-maximal response) in [1] stood at 200 nM.

For the compound `CC(C)c1cccc(-c2cc(/C=C/C(=O)O)ccc2O)c1`, in data set [2], the EC50 is 0.794 nM. In data set [2] (concentration not given here), the inhibition (usually the change of the read-out against control, counted positive when it falls) amounted to 129%. Moreover, the pEC50 (usually the EC50 on a negative log10 scale, so that one unit is a factor of ten) in [3] is 7.7. For the same compound, the Ratio IC50 in data set [4] came to 25.

Regarding `CCCCCOc1cc2c(cc1-c1cc(CCC(=O)O)ccc1O)C(C)(C)CCC2(C)C`, in data set [5], the response was half-maximal at 240 nM (EC50).

Consider `CCN(c1ccc(C(=O)O)cc1)c1ccc(C(C)C)c(OCC(C)C)c1`, for which the EC50 in data set [6] amounted to 0.58 nM; in [7], 23 nM; in data set [8], 3 nM.

In the case of `CC1=C(/C=C/C(C)=C/C=C/C(C)=C/C=O)C(C)(C)CCC1` [RETINAL], the EC50 in [1] was 200 nM. In addition, the fold change (FC) in data set [9] was found to be 4.

Take `Cc1ccc(Cl)c(Nc2ccccc2C(=O)O)c1Cl` [MECLOFENAMIC ACID]: the EC50 came out at 4700 nM in data set [10] and 900 nM in data set [11]. The half-life in data set [12] and in data set [13] was 1.5 h throughout.

In data set [1], `CC1(C)CC=C(c2ccccc2)c2cc(/C=C/c3ccc(C(=O)O)cc3)ccc21` returned an EC50 of 200 nM. Moreover, in [9], the fold change (FC) was determined as 5.

Take `CCN(c1ccc(C(=O)O)cc1)c1ccc(C(C)C)c(OC(C)C)c1`: the EC50 in data set [6] is 32 nM; in [7] it was 36 nM; in data set [8], 376 nM.

Turning to `C=C(c1ccc(C(=O)O)cc1)c1cc2c(cc1C)C(C)(C)CCC2(C)C` [BEXAROTENE], the Activity in [14] is on record as 75%.

In data set [15], `Cc1cc2c(cc1C1(c3ccc(C(=O)O)cn3)CC1)C(C)(C)CCC2(C)C` gave a 50% effective concentration (EC50) of 3 nM.

On to `CC1=C2[C@H](/C=C(\C)C(=O)O)CC[C@@H](C)[C@H]2CC1`, for which the values for the fold change (FC) in data set [16], in data set [17] and in [18] were 9, 69 and 4, respectively.

As to `CCCCC[C@H](O)/C=C/[C@H]1C=CC(=O)[C@@H]1C/C=C\CCCC(=O)O` [PROSTAGLANDIN A2], the Kd (commonly the free concentration of one partner at which half of the binding sites on the other are occupied at equilibrium, for simple one-to-one binding) in data set [19] came to 2050 nM. Besides, in data set [20], the fold change (FC) was 15.

Consider `CC/C=C\C/C=C\C/C=C\C/C=C\C/C=C\C/C=C\CCC(=O)O`, for which the inhibition in [21] and in data set [22] was 25% throughout.

In the case of `CCCCCCCCC(=O)c1c(O)cc(O)cc1CC(=O)OCCCCC`, the IC50 (as a rule, the concentration needed to halve the response being measured) in data set [23] came out at 1600 nM.
